According to patent US20090286806A1, “ISOXAZOLE DERIVATIVES AS CALCIUM CHANNEL BLOCKERS” (priority 2006, published 2009):
Where two headings read alike, the source gives them in different places.

Tests used:
[1] = target: T1, human α1G T-type channels (Homo sapiens, UniProt O43497); assay: T-type calcium channel block, whole-cell patch clamp in HEK cell lines; type: cell-based; conditions: HEK cells
T1 construct: expressed in transfected cells; host or cells: HEK cell lines
Experimental: Standard patch-clamp techniques were employed to identify blockers of T-type currents. Briefly, previously described HEK cell lines stably expressing human α1G T-type channels were used for all the recordings (passage #: 4-20, 37° C., 5% CO2). To obtain T-type currents, plastic dishes containing semi-confluent cells were positioned on the stage of a ZEISS AXIOVERT S100 microscope after replacing the culture medium with external solution (see below). Whole-cell patches were obtained using pipettes (borosilicate glass with filament, O.D.: 1.5 mm, I.D.: 0.86 mm, 10 cm length), fabricated on a SUTTER P-97 puller with resistance values of ˜5 M• (see below for internal solution).
In the non-inactivating protocol, the holding potential is set at −110 mV and with a pre-pulse at −100 mV for 1 second prior to the test pulse at −40 mV for 50 ms. […]
Test compounds were dissolved in external solution, 0.1-0.01% DMSO. After ˜10 min rest, they were applied by gravity close to the cell using a WPI microfil tubing. The “non-inactivated” pre-pulse was used to examine the resting block of a compound. The “inactivated” protocol was employed to study voltage-dependent block. However, the initial data shown below were mainly obtained using the non-inactivated protocol only. IC50 values are shown for various compounds of the invention in Table 5.

[2] = target: T2, rat brain N-type calcium channel subunits (α1B+α2δ+β1b cDNA subunits) (Rattus norvegicus, UniProt Q02294); assay: N-type calcium channel block, whole cell patch clamp in transfected HEK 293 cells; type: cell-based; conditions: holding potential −80 mV to +10 mV
T2 construct: expressed in transfected cells; host or cells: HEK 293
T2 sequence (Q02294 whole entry): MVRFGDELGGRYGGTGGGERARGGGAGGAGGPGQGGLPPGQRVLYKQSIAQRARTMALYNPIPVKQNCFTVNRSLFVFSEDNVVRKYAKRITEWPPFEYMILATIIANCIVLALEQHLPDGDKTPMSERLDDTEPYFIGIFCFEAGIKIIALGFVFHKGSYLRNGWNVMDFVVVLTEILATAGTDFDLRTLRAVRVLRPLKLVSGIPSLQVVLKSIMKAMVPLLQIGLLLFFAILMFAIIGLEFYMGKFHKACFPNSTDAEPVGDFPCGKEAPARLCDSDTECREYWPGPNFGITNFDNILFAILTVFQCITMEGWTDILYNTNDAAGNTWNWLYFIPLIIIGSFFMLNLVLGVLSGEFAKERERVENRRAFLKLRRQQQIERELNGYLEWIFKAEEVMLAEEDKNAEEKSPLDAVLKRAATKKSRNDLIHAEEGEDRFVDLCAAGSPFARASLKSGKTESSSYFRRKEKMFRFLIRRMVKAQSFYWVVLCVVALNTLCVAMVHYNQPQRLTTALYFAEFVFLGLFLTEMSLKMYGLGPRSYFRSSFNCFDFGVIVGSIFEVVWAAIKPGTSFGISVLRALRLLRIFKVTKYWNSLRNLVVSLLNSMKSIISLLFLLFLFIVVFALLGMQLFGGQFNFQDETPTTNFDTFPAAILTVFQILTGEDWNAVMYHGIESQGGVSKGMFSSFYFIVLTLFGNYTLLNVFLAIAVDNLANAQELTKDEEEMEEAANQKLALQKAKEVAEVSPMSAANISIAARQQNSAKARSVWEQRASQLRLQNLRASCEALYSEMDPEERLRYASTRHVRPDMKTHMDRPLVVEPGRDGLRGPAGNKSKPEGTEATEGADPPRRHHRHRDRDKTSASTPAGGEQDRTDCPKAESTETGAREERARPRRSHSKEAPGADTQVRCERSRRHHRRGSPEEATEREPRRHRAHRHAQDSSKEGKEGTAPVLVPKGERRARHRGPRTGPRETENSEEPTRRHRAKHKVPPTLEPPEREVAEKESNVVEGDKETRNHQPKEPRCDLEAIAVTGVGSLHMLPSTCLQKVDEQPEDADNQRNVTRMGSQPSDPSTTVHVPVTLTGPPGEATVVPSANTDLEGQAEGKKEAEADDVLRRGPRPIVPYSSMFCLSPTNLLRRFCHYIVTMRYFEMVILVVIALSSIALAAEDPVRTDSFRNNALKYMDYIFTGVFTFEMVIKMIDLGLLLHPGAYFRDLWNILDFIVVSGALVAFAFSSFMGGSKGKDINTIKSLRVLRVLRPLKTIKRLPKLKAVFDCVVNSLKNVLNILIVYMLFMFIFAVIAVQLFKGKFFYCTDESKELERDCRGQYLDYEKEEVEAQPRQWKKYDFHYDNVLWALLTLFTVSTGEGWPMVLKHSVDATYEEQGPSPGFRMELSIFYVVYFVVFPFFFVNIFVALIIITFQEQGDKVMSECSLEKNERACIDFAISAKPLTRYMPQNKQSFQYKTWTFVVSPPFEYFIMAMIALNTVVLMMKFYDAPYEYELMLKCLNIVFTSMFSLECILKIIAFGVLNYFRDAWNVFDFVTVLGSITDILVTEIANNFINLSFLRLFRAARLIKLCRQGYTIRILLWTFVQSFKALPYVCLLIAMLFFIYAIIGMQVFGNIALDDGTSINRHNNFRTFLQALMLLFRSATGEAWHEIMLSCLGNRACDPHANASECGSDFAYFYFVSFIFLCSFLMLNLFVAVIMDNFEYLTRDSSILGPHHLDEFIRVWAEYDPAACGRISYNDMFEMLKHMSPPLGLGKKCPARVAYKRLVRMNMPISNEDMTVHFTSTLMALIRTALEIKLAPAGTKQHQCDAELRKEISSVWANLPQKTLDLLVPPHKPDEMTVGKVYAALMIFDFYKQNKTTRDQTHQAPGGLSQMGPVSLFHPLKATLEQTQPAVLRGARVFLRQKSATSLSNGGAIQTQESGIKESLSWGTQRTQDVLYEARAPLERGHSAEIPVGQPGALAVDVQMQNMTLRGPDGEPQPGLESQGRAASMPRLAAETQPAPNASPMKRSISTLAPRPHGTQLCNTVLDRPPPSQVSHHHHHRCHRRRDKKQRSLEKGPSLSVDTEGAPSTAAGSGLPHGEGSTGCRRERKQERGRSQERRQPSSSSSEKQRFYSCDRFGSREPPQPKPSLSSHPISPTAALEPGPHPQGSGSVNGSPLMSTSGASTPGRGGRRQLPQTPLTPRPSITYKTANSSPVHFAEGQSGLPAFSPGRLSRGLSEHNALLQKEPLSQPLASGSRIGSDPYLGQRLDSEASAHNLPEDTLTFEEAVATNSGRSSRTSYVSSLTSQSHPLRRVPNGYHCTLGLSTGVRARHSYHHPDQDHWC
Experimental: N-type calcium channel blocking activity was assayed in human embryonic kidney cells, HEK 293, stably transfected with the rat brain N-type calcium channel subunits (α1B+α2δ+β1b cDNA subunits). Alternatively, N-type calcium channels (α1B+α2δ+β1b cDNA subunits), L-type channels (α1C+α2δ+β1b cDNA subunits) and P/Q-type channels (α1A+α2δ+β1b cDNA subunits) were transiently expressed in HEK 293 cells. Briefly, cells were cultured in Dulbecco's modified eagle medium (DMEM) supplemented with 10% fetal bovine serum, 200 U/ml penicillin and 0.2 mg/ml streptomycin at 37° C. with 5% CO2. At 85% confluency cells were split with 0.25% trypsin/1 mM EDTA and plated at 10% confluency on glass coverslips. At 12 hours the medium was replaced and the cells transiently transfected using a standard calcium phosphate protocol and the appropriate calcium channel cDNA's. Fresh DMEM was supplied and the cells transferred to 28° C./5% CO2. Cells were incubated for 1 to 2 days prior to whole cell recording.
Whole cell patch clamp experiments were performed using an Axopatch 200B amplifier (Axon Instruments, Burlingame, Calif.) linked to a personal computer equipped with pCLAMP software. The external and internal recording solutions contained, respectively, 5 mM BaCl2, 10 mM MgCl2, 10 mM HEPES, 40 mM TEACl, 10 mM glucose, 87.5 mM CsCl (pH 7.2) and 108 mM CsMS, 4 mM MgCl2, 9 mM EGTA, 9 mM HEPES (pH 7.2). Currents were typically elicited from a holding potential of −80 mV to +10 mV using Clampex software (Axon Instruments). Typically, currents were first elicited with low frequency stimulation (0.067 Hz) and allowed to stabilize prior to application of the compounds. The compounds were then applied during the low frequency pulse trains for two to three minutes to assess tonic block, and subsequently the pulse frequency was increased to 0.2 Hz to assess frequency dependent block. Data were analyzed using Clampfit (Axon Instruments) and SigmaPlot 4.0 (Jandel Scientific).

[3] = test system: T-type over L-type channels; conditions: literature statement (Heady et al. 2001); cited from earlier work
[4] = inactivation protocol (voltage-dependent block), read-out: IC50 @ −80 mV
[5] = non-inactivating protocol, pre-pulse −100 mV (resting block), read-out: IC50 @ −100 mV
[6] = low frequency stimulation 0.067 Hz (tonic block), read-out: IC50 @ 0.067 Hz
[7] = pulse frequency 0.2 Hz (frequency dependent block), read-out: IC50 @ 0.2 Hz

T1 sequence (O43497 whole entry): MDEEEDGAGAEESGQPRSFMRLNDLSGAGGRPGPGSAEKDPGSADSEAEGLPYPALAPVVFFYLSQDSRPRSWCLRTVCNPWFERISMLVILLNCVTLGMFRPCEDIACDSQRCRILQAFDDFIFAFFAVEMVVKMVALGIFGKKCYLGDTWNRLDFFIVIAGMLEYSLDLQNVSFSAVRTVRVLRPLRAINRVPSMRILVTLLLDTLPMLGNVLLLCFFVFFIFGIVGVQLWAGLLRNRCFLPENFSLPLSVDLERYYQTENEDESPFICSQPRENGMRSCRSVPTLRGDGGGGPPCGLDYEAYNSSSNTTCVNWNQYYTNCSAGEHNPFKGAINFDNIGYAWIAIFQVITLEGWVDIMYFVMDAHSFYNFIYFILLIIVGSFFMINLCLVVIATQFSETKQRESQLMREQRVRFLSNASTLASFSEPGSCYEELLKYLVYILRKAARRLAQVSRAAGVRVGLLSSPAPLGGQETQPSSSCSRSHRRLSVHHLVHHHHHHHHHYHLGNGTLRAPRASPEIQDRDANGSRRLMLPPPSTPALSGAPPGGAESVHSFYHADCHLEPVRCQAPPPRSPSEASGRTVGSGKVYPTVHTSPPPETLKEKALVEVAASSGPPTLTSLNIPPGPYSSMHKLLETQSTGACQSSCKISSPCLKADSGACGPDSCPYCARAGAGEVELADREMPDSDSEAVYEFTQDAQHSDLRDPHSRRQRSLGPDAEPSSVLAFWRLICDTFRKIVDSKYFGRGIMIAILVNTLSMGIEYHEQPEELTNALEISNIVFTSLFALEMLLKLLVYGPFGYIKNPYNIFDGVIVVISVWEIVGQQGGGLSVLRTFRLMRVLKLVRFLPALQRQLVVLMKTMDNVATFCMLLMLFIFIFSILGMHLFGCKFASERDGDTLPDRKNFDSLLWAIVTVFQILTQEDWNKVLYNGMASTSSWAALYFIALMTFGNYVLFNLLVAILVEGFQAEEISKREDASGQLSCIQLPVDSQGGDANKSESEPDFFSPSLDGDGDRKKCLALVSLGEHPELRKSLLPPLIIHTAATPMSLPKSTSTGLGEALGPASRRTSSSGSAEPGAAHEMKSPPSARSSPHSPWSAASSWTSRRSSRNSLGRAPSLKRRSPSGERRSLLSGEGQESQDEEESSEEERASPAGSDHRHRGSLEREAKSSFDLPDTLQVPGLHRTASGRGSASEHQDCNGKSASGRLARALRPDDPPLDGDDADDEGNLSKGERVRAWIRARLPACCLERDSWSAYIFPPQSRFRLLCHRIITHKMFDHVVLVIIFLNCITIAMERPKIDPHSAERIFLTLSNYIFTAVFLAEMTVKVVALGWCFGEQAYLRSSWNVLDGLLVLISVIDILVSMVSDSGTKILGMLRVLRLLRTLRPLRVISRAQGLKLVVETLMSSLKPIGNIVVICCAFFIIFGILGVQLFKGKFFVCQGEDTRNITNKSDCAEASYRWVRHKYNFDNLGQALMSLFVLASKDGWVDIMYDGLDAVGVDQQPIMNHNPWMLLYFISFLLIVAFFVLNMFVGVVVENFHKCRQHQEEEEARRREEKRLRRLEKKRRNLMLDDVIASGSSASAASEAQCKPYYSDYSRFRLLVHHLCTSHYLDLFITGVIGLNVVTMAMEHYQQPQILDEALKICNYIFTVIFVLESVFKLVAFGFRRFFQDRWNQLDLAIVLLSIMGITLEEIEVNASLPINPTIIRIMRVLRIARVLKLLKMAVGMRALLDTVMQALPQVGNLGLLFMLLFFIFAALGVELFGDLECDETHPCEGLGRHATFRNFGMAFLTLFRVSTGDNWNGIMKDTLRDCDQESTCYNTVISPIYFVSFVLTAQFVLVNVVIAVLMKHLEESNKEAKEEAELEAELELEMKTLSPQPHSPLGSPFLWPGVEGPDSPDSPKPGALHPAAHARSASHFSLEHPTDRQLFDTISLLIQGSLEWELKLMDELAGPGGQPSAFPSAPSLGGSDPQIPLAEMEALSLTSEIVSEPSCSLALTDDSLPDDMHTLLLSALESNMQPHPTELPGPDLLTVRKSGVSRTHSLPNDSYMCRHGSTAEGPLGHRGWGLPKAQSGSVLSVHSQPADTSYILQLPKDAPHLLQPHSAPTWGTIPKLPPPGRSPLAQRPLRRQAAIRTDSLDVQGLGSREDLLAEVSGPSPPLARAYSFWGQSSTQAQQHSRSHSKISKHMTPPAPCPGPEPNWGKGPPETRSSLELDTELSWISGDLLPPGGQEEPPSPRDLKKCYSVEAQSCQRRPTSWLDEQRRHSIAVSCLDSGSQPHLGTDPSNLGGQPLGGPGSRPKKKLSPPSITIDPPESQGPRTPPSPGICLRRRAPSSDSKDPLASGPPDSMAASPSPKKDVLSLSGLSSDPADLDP

## c1ccc(-c2cc(CN3CCN(C(c4ccccc4)c4ccccc4)CC3)on2)cc1 [Compound 2, 5-((4-benzhydrylpiperazin-1-yl)methyl)-3-phenylisoxazole]
[1]; [4]
  IC50: 350 nM
[1]; [5]
  IC50: 1600 nM
[2]; [6]
  IC50: 1700 nM
[2]; [7]
  IC50: 670 nM

## O=C(CC(c1ccccc1)c1ccccc1)N1CCN(Cc2cc(-c3ccccc3F)no2)CC1 [Compound 7, 1-(4-((3-(2-fluorophenyl)isoxazol-5-yl)methyl)piperazin-1-yl)-3,3-diphenylpropan-1-one]
[2]; [6]
  IC50: 520 nM
[2]; [7]
  IC50: 330 nM

## O=C(c1cc(-c2ccccc2)no1)N1CCN(C(c2ccccc2)c2ccccc2)CC1 [Compound 1, (4-benzhydrylpiperazin-1-yl)(3-phenylisoxazol-5-yl)methanone]
[1]; [4]
  IC50: 1900 nM
[1]; [5]
  IC50: > 10000 nM
[2]; [6]
  IC50: 650 nM
[2]; [7]
  IC50: 290 nM

## Cc1ccc(C(c2ccccc2)N2CCN(Cc3cc(-c4ccccc4F)no3)CC2)c(C)c1 (stereo not drawn) [Compound 12, 5-((4-((2,4-dimethylphenyl)(phenyl)methyl)piperazin-1-yl)methyl)-3-(2-fluorophenyl)isoxazole]
[1]; [4]
  IC50: 830 nM
[1]; [5]
  IC50: 3690 nM
[2]; [6]
  IC50: 950 nM
[2]; [7]
  IC50: 570 nM

## COc1ccccc1-c1cc(C(=O)N2CCN(C(c3ccccc3)c3ccccc3)CC2)on1 [Compound 4, (4-benzhydrylpiperazin-1-yl)(3-(2-methoxyphenyl)isoxazol-5-yl)methanone]
[2]; [6]
  IC50: 2990 nM
[2]; [7]
  IC50: 1490 nM

## COCC(=O)O[C@]1(CCN(C)CCCc2nc3ccccc3[nH]2)CCc2cc(F)ccc2[C@@H]1C(C)C [Mibefradil]
[3]
  selective for T-type over L-type channels: 10-30 fold

## Fc1ccccc1-c1cc(CN2CCN(C(c3ccccc3)c3ccccc3)CC2)on1 [Compound 6, 5-((4-benzhydry1piperazin-1-yl)methyl)-3-(2-fluorophenyl)isoxazole]
[2]; [6]
  IC50: 3400 nM
[2]; [7]
  IC50: 1100 nM

## Fc1ccccc1-c1cc(CN2CCN(C(c3ccccc3)c3ccc(Cl)cc3Cl)CC2)on1 (stereo not drawn) [Compound 16, 5-((4-((2,4-dichlorophenyl)(phenyl)methyl)piperazin-1-yl)methyl)-3-(2-fluorophenyl) isoxazole]
[2]; [6]
  IC50: 3150 nM
[2]; [7]
  IC50: 1960 nM

## COc1ccccc1-c1cc(CN2CCN(C(c3ccccc3)c3ccccc3)CC2)on1 [Compound 5, 5-((4-benzhydry1piperazin-1-yl)methyl)-3-(2-methoxyphenyl)isoxazole]
[2]; [6]
  IC50: 680 nM
[2]; [7]
  IC50: 340 nM

## Cc1ccc(C(c2ccccc2)N2CCN(Cc3cc(-c4ccccc4)no3)CC2)c(C)c1 (stereo not drawn) [Compound 10, 5-((4-((2,4-dimethylphenyl)(phenyl)methyl)piperazin-1-yl)methyl)-3-phenylisoxazole]
[1]; [4]
  IC50: 2180 nM
[1]; [5]
  IC50: 9210 nM
[2]; [6]
  IC50: 1070 nM
[2]; [7]
  IC50: 400 nM

## O=C(CC(c1ccccc1)c1ccccc1)N1CCN(Cc2cc(-c3ccccc3)no2)CC1 [Compound 9, 3,3-diphenyl-1-(4-((3-phenylisoxazol-5-yl)methyl)piperazin-1-yl)propan-1-one]
[1]; [4]
  IC50: 1700 nM
[1]; [5]
  IC50: > 10000 nM
[2]; [6]
  IC50: 2800 nM
[2]; [7]
  IC50: 1200 nM

## COc1ccccc1-c1cc(CN2CCN(C(=O)CC(c3ccccc3)c3ccccc3)CC2)on1 [Compound 8, 1-(4-((3-(2-methoxyphenyl)isoxazol-5-yl)methyl)piperazin-1-yl)-3,3-diphenylpropan-1-one]
[2]; [6]
  IC50: 600 nM
[2]; [7]
  IC50: 290 nM

## Clc1ccc(C(c2ccccc2)N2CCN(Cc3cc(-c4ccccc4)no3)CC2)c(Cl)c1 (stereo not drawn) [Compound 14, 5-((4-((2,4-dichlorophenyl)(phenyl)methyl)piperazin-1-yl)methyl)-3-phenylisoxazole]
[1]; [4]
  IC50: 5530 nM
[1]; [5]
  IC50: > 16500 nM
[2]; [6]
  IC50: 22200 nM
[2]; [7]
  IC50: 2240 nM

## Cc1ccc(C(c2ccccc2)N2CCN(C(=O)c3cc(-c4ccccc4F)no3)CC2)c(C)c1 (stereo not drawn) [Compound 11, (4-((2,4-dimethylphenyl)(phenyl)methyl)piperazin-1-yl)(3-(2-fluorophenyl)isoxazol-5-yl)methanone]
[1]; [4]
  IC50: 2770 nM
[1]; [5]
  IC50: 14800 nM
[2]; [6]
  IC50: 2180 nM
[2]; [7]
  IC50: 1130 nM

## O=C(c1cc(-c2ccccc2F)no1)N1CCN(C(c2ccccc2)c2ccc(Cl)cc2Cl)CC1 (stereo not drawn) [Compound 15, (4-((2,4-dichlorophenyl)(phenyl)methyl)piperazin-1-yl)(3-(2-fluorophenyl)isoxazol-5-yl)methanone]
[2]; [6]
  IC50: 6470 nM
[2]; [7]
  IC50: 3380 nM

## O=C(c1cc(-c2ccccc2F)no1)N1CCN(C(c2ccccc2)c2ccccc2)CC1 [Compound 3, (4-benzhydrylpiperazin-1-yl)(3-(2-fluorophenyl)isoxazol-5-yl)methanone]
[2]; [6]
  IC50: 800 nM
[2]; [7]
  IC50: 370 nM
